These results are taken from ChEMBL document CHEMBL1201862, “PubChem BioAssay data set” (2004).

Molecules are shown by their SMILES.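 Cells were grown in 96-well plates and exposed to each compound for 48 hours at five concentrations; endpoints were interpolated linearly between bracketing concentrations, or set to the highest concentration if not reached. GI50: concentration for 50% inhibition of growth.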 Activity calls are given as the source filed them. Rule as the data show it: active = GI50 up to about 1.1 µM and inactive = higher.

Test systems include 786-0; A549; DLD-1; EKVX; HCC 2998; HCT-15; HOP-92; IGROV-1; K562; NCI-H23; OVCAR-4; SK-MEL-28; SK-MEL-2; UACC-257; SK-OV-3.
Common to all, as to test: NCI anticancer screen, dose series, 48 h

As to `C#CN1C(=O)c2c(c(-c3ccccc3)c(-c3ccc(Oc4ccc(-c5c(-c6ccccc6)c6c(c(-c7ccccc7)c5-c5ccccc5)C(=O)N(C#C)C6=O)cc4)cc3)c(-c3ccccc3)c2-c2ccccc2)C1=O`, the GI50 is > 100 µM (inactive) in the assay with 786-0; > 100 µM (inactive) in the assay on A549; > 100 µM (inactive) in the assay on DLD-1; > 100 µM (inactive) in the assay on EKVX; > 100 µM (inactive) in the assay with HCC 2998; 30.8 µM in the assay on HCT-15. In addition, the GI50 in the assay with HOP-92 is 21.9 µM (inactive); in the assay on IGROV-1, 72.6 µM (inactive); in the assay on K562 it was > 100 µM (inactive); in the assay with NCI-H23, > 100 µM (inactive); in the assay with OVCAR-4, > 100 µM (inactive); with SK-MEL-28, > 100 µM (inactive). For the same compound, the GI50 in the assay on SK-MEL-2 and in the assay with UACC-257 was > 100 µM (inactive) in each case.
With `C1OC1CO[C@@H]1CO[C@H]2[C@@H]1OC[C@H]2OCC1CO1` (stereo partly specified), the GI50 with 786-0 was > 100 µM (inactive); with A549, > 100 µM (inactive); in the assay with DLD-1 it was > 100 µM (inactive); with EKVX, > 100 µM (inactive); in the assay on HCC 2998, > 100 µM (inactive); in the assay on HCT-15, above 100 µM. Also, the GI50 in the assay on HOP-92, with IGROV-1, in the assay with K562, in the assay on NCI-H23, in the assay on OVCAR-4 and in the assay on SK-MEL-28 was > 100 µM (inactive) in each case. The GI50 with SK-MEL-2, in the assay with SK-OV-3 and with UACC-257 was > 100 µM (inactive) in each case.
For `O=C(COc1ccc2c(=O)cc(-c3ccc(Cl)cc3)oc2c1)N1CCN(c2ccccc2)CC1`, the GI50 is > 100 µM (inactive) in the assay on 786-0; 48.9 µM (inactive) in the assay with A549; > 100 µM (inactive) in the assay on DLD-1; > 100 µM (inactive) in the assay on EKVX; > 100 µM (inactive) with HCC 2998; above 100 µM with HCT-15. Besides, the GI50 in the assay on HOP-92 is 64.1 µM (inactive); with IGROV-1 it was > 100 µM (inactive); in the assay on K562, 4.56 µM (inactive); in the assay on NCI-H23, > 100 µM (inactive); in the assay on OVCAR-4, > 100 µM (inactive); in the assay with SK-MEL-28, > 100 µM (inactive). The GI50 in the assay on SK-MEL-2, with SK-OV-3 and in the assay on UACC-257 was > 100 µM (inactive) each time.
For the compound `O=C(/C=C/c1cc(Cl)cc(Cl)c1O)c1cccc(O)c1`, the GI50 in the assay on 786-0 is 70.5 µM (inactive); in the assay with A549 it was > 100 µM (inactive); with DLD-1 it was 38.8 µM (inactive); with EKVX, 36.3 µM (inactive); with HCC 2998, 85.3 µM (inactive); in the assay with HCT-15, 41.5 µM. The GI50 with HOP-92 was 27.8 µM (inactive); in the assay with IGROV-1, 42.2 µM (inactive); in the assay on K562, 33.4 µM (inactive); in the assay on NCI-H23, 52 µM (inactive); in the assay on OVCAR-4, 40.2 µM (inactive); with SK-MEL-28, 43.5 µM (inactive). Also, the results for the GI50 in the assay on SK-MEL-2, in the assay with SK-OV-3 and with UACC-257 were 26.2 µM (inactive), 31.8 µM (inactive) and > 100 µM (inactive), respectively.
`COc1cc(C=O)c(-c2cc3c(cc2C2(C)OCCS2)OCO3)c(OC)c1OC` (stereo unspecified): the GI50 was 7.4 µM (inactive) in the assay on 786-0; 8.71 µM (inactive) in the assay with A549; 16.7 µM (inactive) in the assay on DLD-1; 19.7 µM (inactive) in the assay on EKVX; 16.4 µM (inactive) with HCC 2998; 8.22 µM in the assay with HCT-15. Besides, the GI50 with HOP-92 was 14.8 µM (inactive); in the assay with IGROV-1, 28.2 µM (inactive); in the assay with K562, 8.83 µM (inactive); with NCI-H23 it was 21.9 µM (inactive); in the assay with OVCAR-4, 17.9 µM (inactive); in the assay with SK-MEL-28 it was 4.4 µM (inactive). In addition, the GI50 was 11.4 µM (inactive) in the assay with SK-MEL-2, 13.6 µM (inactive) in the assay with SK-OV-3 and 8.83 µM (inactive) in the assay on UACC-257.
For the compound `O=C(/C=C1/Nc2ccc([N+](=O)[O-])cc2NC1O)c1cccc([N+](=O)[O-])c1` (stereo unspecified), the GI50 was 14 µM (inactive) in the assay with 786-0; 58.7 µM (inactive) in the assay on A549; 17.3 µM (inactive) in the assay on DLD-1; > 100 µM (inactive) in the assay with EKVX; 53.5 µM (inactive) in the assay on HCC 2998; 23.5 µM in the assay on HCT-15. For the same compound, the GI50 with HOP-92 is > 100 µM (inactive); in the assay on IGROV-1, > 100 µM (inactive); in the assay with K562, 30.3 µM (inactive); with NCI-H23, 36.6 µM (inactive); in the assay with OVCAR-4 it was 4.16 µM (inactive); in the assay with SK-MEL-28, 39.8 µM (inactive). The GI50 in the assay with SK-OV-3 was 20.3 µM (inactive); in the assay with UACC-257 it was 82.4 µM (inactive).
In the case of `O=C(/C=C/c1ccc(OCCCCCCCCCCOc2ccc(/C=C/C(=O)c3ccc(Cl)cc3)cc2)cc1)c1ccc(Cl)cc1`, the GI50 was > 100 µM (inactive) in the assay with 786-0; > 100 µM (inactive) in the assay on A549; > 100 µM (inactive) in the assay with DLD-1; > 100 µM (inactive) with EKVX; > 100 µM (inactive) in the assay with HCC 2998; above 100 µM in the assay on HCT-15. Further, the GI50 in the assay with HOP-92, in the assay with IGROV-1, with K562, in the assay on NCI-H23, in the assay on SK-MEL-28 and with SK-MEL-2 was > 100 µM (inactive) throughout. Further, the GI50 in the assay with SK-OV-3 and in the assay with UACC-257 was > 100 µM (inactive) throughout.
With `O=C1c2ccccc2C(=O)c2nc(-c3ccccc3)c(-c3ccccc3)nc21`, the GI50 in the assay on 786-0 is > 61.7 µM (inactive); in the assay with A549, 22.8 µM (inactive); with DLD-1 it was > 100 µM (inactive); with EKVX it was > 100 µM (inactive); in the assay with HCC 2998, > 100 µM (inactive); with HCT-15, above 88.1 µM. Besides, the GI50 with HOP-92 is 20.3 µM (inactive); in the assay with K562 it was > 100 µM (inactive); with NCI-H23 it was 17.6 µM (inactive); with OVCAR-4, 7.08 µM (inactive); with SK-MEL-28, > 74.1 µM (inactive); with SK-MEL-2 it was 10.8 µM (inactive). Moreover, the GI50 was > 100 µM (inactive) in the assay on SK-OV-3 and 1.89 µM (inactive) in the assay with UACC-257.
Turning to `c1ccc(SC23C4C5C6C4C2C6C53)nc1` (stereo unspecified), the GI50 with 786-0 was > 100 µM (inactive); in the assay with A549, > 100 µM (inactive); in the assay on DLD-1, > 100 µM (inactive); with EKVX, > 100 µM (inactive); in the assay on HCC 2998, > 100 µM (inactive); with HCT-15, above 100 µM. For the same compound, the GI50 in the assay with HOP-92, with IGROV-1, in the assay on K562, in the assay on NCI-H23, in the assay on OVCAR-4 and in the assay with SK-MEL-28 was > 100 µM (inactive) in each case. For the same compound, the GI50 in the assay on SK-MEL-2, in the assay with SK-OV-3 and with UACC-257 was > 100 µM (inactive) in each case.
In the case of `O=C(CC(=O)c1cccc2ccccc12)C(=O)NC1C2CC3CC(C2)CC1C3` (stereo unspecified), the GI50 in the assay with 786-0 is > 100 µM (inactive); with A549 it was > 100 µM (inactive); in the assay on DLD-1, > 100 µM (inactive); with EKVX, > 100 µM (inactive); with HCC 2998 it was > 100 µM (inactive); in the assay on HCT-15, above 100 µM. Moreover, the GI50 with HOP-92 is 34.4 µM (inactive); in the assay on IGROV-1, > 100 µM (inactive); with K562, 51.4 µM (inactive); in the assay with NCI-H23, > 100 µM (inactive); in the assay on OVCAR-4, > 100 µM (inactive); in the assay with SK-OV-3 it was > 100 µM (inactive). In addition, the GI50 in the assay with UACC-257 is > 100 µM (inactive).
As for `CN(C)C(=S)Nc1nnc(Nc2ccccc2)s1`, the GI50 in the assay with 786-0 was > 100 µM (inactive); in the assay with A549, > 100 µM (inactive); in the assay with DLD-1 it was > 100 µM (inactive); in the assay on EKVX, > 100 µM (inactive); in the assay with HCC 2998 it was > 100 µM (inactive); in the assay on HCT-15, above 100 µM. Further, the GI50 in the assay with HOP-92, with IGROV-1, in the assay on K562, in the assay on NCI-H23, in the assay on OVCAR-4 and in the assay on SK-MEL-28 was > 100 µM (inactive) throughout. The GI50 in the assay with SK-MEL-2 was > 100 µM (inactive); in the assay with SK-OV-3 it was > 100 µM (inactive); in the assay on UACC-257, 59 µM (inactive).
In the case of `COC(=O)/C=C/c1cc(OC)c(OC)c(OC)c1`, the GI50 was > 100 µM (inactive) in the assay on 786-0; > 100 µM (inactive) in the assay with A549; > 100 µM (inactive) in the assay on DLD-1; > 100 µM (inactive) in the assay on EKVX; > 100 µM (inactive) with HCC 2998; above 100 µM in the assay on HCT-15. Moreover, the GI50 in the assay with HOP-92, in the assay on IGROV-1, in the assay with NCI-H23, with OVCAR-4, in the assay with SK-MEL-28 and with SK-MEL-2 was > 100 µM (inactive) throughout. Also, the GI50 with SK-OV-3 and with UACC-257 was > 100 µM (inactive) in each case.
With `COc1ccc(/C(=N\NC(=N)N)C(c2ccc(OC)cc2)C2OC(=O)c3ccccc32)cc1` (stereo unspecified), the GI50 with 786-0 is > 100 µM (inactive); with A549, > 100 µM (inactive); in the assay with DLD-1, > 100 µM (inactive); with HCC 2998 it was > 100 µM (inactive); in the assay on HCT-15, above 100 µM; in the assay on HOP-92, > 100 µM (inactive). In addition, the GI50 with IGROV-1, in the assay with K562, in the assay with NCI-H23, in the assay with OVCAR-4, in the assay on SK-MEL-28 and in the assay with SK-OV-3 was > 100 µM (inactive) in each case. Further, the GI50 in the assay with UACC-257 was > 100 µM (inactive).
As to `O=C1Nc2ccccc2C12CCNC2Cc1ccccc1` (stereo unspecified), the GI50 with 786-0 is > 100 µM (inactive); in the assay on A549, > 100 µM (inactive); in the assay on DLD-1, > 100 µM (inactive); with EKVX, > 100 µM (inactive); with HCC 2998, > 100 µM (inactive); in the assay on HCT-15 it was above 100 µM. Moreover, the GI50 in the assay on HOP-92 was 76.6 µM (inactive); in the assay with IGROV-1, > 100 µM (inactive); with K562, > 100 µM (inactive); in the assay on NCI-H23, > 100 µM (inactive); in the assay with OVCAR-4, > 100 µM (inactive); with SK-MEL-28 it was > 100 µM (inactive). The GI50 in the assay on SK-MEL-2, in the assay on SK-OV-3 and in the assay with UACC-257 was > 100 µM (inactive) throughout.
